Values quoted from earlier work in US8846084B2, “Controlled release compositions containing zolpidem” (Wockhardt Ltd, priority 2005, dated 2014).

Target: T1, (BZ)1 receptor (Homo sapiens, UniProt P14867+P18507)
T1 sequence (P14867 28-456): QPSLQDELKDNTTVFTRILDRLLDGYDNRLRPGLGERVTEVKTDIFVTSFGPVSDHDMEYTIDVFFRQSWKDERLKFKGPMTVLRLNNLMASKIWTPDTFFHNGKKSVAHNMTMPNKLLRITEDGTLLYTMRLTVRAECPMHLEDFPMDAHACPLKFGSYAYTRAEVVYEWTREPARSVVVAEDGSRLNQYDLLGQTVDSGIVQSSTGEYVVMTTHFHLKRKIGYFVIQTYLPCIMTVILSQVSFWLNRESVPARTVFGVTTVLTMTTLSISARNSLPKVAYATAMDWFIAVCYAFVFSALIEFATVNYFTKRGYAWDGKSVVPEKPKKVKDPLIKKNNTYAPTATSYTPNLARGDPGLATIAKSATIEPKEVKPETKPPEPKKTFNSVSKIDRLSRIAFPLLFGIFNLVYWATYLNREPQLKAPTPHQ
T1 sequence (P18507 40-467 limits assumed): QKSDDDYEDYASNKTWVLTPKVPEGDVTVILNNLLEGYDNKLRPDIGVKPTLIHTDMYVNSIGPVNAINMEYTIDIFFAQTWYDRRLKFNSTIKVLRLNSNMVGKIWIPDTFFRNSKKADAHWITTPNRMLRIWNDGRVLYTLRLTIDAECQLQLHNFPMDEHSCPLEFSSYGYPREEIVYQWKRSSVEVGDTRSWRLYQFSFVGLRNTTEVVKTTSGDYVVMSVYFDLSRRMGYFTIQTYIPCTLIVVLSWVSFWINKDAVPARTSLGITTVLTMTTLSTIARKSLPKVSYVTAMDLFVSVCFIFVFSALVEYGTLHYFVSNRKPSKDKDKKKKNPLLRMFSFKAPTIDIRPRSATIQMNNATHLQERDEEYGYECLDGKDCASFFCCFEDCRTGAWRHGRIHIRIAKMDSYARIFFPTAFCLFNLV
T1 sequence (P47870 25-512 partner limits assumed): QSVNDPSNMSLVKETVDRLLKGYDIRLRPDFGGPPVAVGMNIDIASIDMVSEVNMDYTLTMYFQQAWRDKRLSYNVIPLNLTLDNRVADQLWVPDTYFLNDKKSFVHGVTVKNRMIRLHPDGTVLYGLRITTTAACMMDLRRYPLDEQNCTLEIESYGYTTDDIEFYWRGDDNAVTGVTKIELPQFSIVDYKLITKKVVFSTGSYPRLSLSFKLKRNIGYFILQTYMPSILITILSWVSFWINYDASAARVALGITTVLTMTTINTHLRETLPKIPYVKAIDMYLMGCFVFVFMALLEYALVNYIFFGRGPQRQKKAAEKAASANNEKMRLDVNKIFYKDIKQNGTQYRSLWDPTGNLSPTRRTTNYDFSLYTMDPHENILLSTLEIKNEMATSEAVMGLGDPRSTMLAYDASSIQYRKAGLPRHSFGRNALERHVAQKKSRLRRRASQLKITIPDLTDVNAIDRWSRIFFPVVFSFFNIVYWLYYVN
Conditions: in vitro; affinity ratio of the α1-subunits/α5-subunits

Compound: Cc1ccc(-c2nc3ccc(C)cn3c2CC(=O)N(C)C)cc1 [zolpidem, N,N,6-trimethyl-2-p-tolylimidazo[1,2-a]pyridine-3-acetamide]
- receptor subtype binding preference: binds the (BZ)1 receptor preferentially with a high affinity ratio
